By pEC50 is commonly meant the EC50 on a negative log10 scale, so that one unit is a factor of ten. One may read the pIC50 as the IC50 on a negative log10 scale, so that one unit is a factor of ten.

Experimental findings from US20130289083A1, “IDO Inhibitors” (priority 2007, published 2013) are described below.

pEC50, pIC50: −log10 of the molar value. Where two headings read alike, the source gives them in different places.

The subject of one data set is IDO-293-T-Rex cells. Here is the method:
To measure the toxicity of each compound after 16 h incubation with cells, cell viability is measured via a WST-1 assay (Roche) according to instructions from the manufacturer. Briefly, after the incubation with each compound, medium is aspirated and replaced with […] of WST-1 reagent, and incubated 30 min at 37° C. Absorbance at 540 nm is correlated with the number of viable cells. Determination of IC50 (Kynurenine assay) or LD50 (WST-1 assay) is performed via non-linear regression analysis using GraphPad Prism software.
Viability was measure by the WST assay as described in one of the examples.

The target of another data set is human IDO (Homo sapiens, UniProt P14902). The data set is described as follows: Cell based IDO/kynurenine assay in IDO-293-T-Rex cells. The following applies: kynurenine production, 293T cells expressing human IDO. Put shortly: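 293-T-REx cells stably carrying doxycycline-inducible human or murine IDO were incubated with inhibitors in induction medium for 16 h at 37° C. Medium was TCA-treated at 60° C and reacted with p-dimethylaminobenzaldehyde. Kynurenine was quantified by absorbance at 480 nm.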
human IDO, sequence (P14902 whole entry): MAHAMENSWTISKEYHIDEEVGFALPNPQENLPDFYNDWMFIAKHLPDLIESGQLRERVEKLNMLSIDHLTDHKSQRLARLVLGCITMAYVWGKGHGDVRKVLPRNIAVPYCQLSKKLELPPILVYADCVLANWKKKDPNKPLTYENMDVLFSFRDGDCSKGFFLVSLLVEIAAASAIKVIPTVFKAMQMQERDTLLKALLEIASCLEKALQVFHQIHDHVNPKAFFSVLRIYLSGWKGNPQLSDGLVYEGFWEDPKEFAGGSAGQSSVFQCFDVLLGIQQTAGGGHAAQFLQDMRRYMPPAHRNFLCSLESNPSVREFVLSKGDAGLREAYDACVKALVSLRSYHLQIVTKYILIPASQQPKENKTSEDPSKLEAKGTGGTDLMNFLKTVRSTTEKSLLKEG

The target in the next data set is T1, murine IDO (Mus musculus, UniProt P28776).
T1 construct: expressed in transfected cells; host or cells: 293-T-REx cells (Invitrogen), doxycycline-inducible CMV-tet promoter
T1 sequence (P28776 whole entry): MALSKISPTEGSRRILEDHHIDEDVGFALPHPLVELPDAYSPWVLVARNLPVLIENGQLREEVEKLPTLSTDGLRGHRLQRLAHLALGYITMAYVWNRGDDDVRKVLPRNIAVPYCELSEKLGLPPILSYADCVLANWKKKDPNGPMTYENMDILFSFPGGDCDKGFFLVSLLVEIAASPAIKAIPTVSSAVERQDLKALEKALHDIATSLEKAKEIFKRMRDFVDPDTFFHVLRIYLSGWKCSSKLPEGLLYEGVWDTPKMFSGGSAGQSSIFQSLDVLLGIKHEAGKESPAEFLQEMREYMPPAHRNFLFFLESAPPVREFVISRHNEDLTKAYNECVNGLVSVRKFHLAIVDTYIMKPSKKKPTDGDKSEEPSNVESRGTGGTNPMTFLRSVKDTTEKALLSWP
The data set is described as follows: Cell based IDO/kynurenine assay in 293-T-Rex cells expressing murine IDO. As to conditions: cells expressing murine IDO.

Data set [1] deals with purified human IDO protein (Homo sapiens, UniProt P14902). Briefly: Enzymatic IDO assay (kynurenine production, absorbance 480 nm). The following applies: recombinant human IDO, enzymatic activity.
purified human IDO protein, sequence (P14902 whole entry P110S/E119G): as the sequence (P14902 whole entry) above, with P110S, E119G counted along it
Data set [2] has as its system 293-T-Rex cells expressing murine IDO. Briefly: Toxicity / cell viability (LD50) in the murine IDO cell based assay.
Setting [3] is: Table 16, 50% cell viability loss, WST assay, human IDO cell based assay.
The mark [4] stands for this setting: Table 16, cell viability loss, murine IDO cell based assay.
The mark [5] stands for this setting: Table 15, 50% cell viability loss, WST assay, human IDO cell based assay.
[6] abbreviates: Table 15, cell viability loss, murine IDO cell based assay.

In the case of `NOCc1cc([N+](=O)[O-])cc([N+](=O)[O-])c1` [compound 1657, O-(3,5-dinitrobenzyl)hydroxylamine], in the data set with IDO-293-T-Rex cells (setting [3]), the “hIDO LD50” value is given as “D (D>1000 μM)”. The pEC50 on human IDO (hIDO EC50, Table 16) was > 5.00; at murine IDO (mIDO EC50, Table 16), > 5.00. Further, the pIC50 in data set [1] (hIDO IC50, Table 16) was > 5.00. The “mIDO LD50” value in data set [2] (setting [4]) was “D (D>1000 μM)”.

`N#Cc1ccc(CON)cc1` [compound 1896, 4-(aminooxymethyl)benzonitrile]: the “hIDO LD50” value in the data set with IDO-293-T-Rex cells (setting [5]) is “D (D>1000 μM)”. For the same compound, the pEC50 is > 5.00 on human IDO (Table 15, read-out: hIDO EC50) and 4.00 to 5.00 on murine IDO (Table 15, read-out: mIDO EC50). Moreover, in data set [1] (hIDO IC50, Table 15), the pIC50 was > 5.00. In data set [2] (setting [6]), the “mIDO LD50” value was “D (D>1000 μM)”.

Take `NOCc1cccc(F)c1` [compound 762, O-(3-fluorobenzyl)hydroxylamine]: the “hIDO LD50” value in the data set on IDO-293-T-Rex cells (setting [3]) is listed as “D (D>1000 μM)”. For the same compound, the pEC50 at human IDO (Table 16, read-out: hIDO EC50) is > 5.00; at murine IDO (Table 16, read-out: mIDO EC50), > 5.00. Further, the pIC50 in data set [1] (hIDO IC50, Table 16) is > 5.00. Moreover, the “mIDO LD50” value in data set [2] (setting [4]) is given as “D (D>1000 μM)”.

On to `NOCc1c[nH]c2ccccc12` [compound 1742, O-((1H-indol-3-yl)methyl)hydroxylamine], for which the “hIDO LD50” value in the data set on IDO-293-T-Rex cells (setting [5]) is recorded as “D (D>1000 μM)”. Moreover, the pEC50 at human IDO (Table 15, read-out: hIDO EC50) was > 5.00; at murine IDO (Table 15, read-out: mIDO EC50), > 5.00. For the same compound, the pIC50 in data set [1] (hIDO IC50, Table 15) was 4.00 to 5.00. Besides, the “mIDO LD50” value in data set [2] (setting [6]) is “D (D>1000 μM)”.

Consider `NOCc1cc(Cl)cc(Cl)c1` [compound 1769, O-(3,5-dichlorobenzyl)hydroxylamine], for which, in the data set on IDO-293-T-Rex cells, the “hIDO LD50” value is listed as “D (key: A: <10 μM; B: 10-100 μM; C: 100-1000 μM; D>1000 μM)”. Besides, the pEC50 at human IDO (Table 15, read-out: hIDO EC50) is > 5.00; at murine IDO (Table 15, read-out: mIDO EC50), > 5.00. Also, the pIC50 in data set [1] (hIDO IC50, Table 15) is > 5.00. Further, in data set [2], the “mIDO LD50” value is reported as “D (key: A: <10 μM; B: 10-100 μM; C: 100-1000 μM; D>1000 μM)”.

In the case of `NOCc1ccc2ccccc2c1` [compound 1736, O-(naphthalen-2-ylmethyl)hydroxylamine], the “hIDO LD50” value with IDO-293-T-Rex cells (setting [5]) is on record as “D (D>1000 μM)”. Further, the pEC50 is > 5.00 on human IDO (Table 15, read-out: hIDO EC50) and > 5.00 at murine IDO (Table 15, read-out: mIDO EC50). Moreover, the pIC50 in data set [1] (hIDO IC50, Table 15) is > 5.00. In data set [2] (setting [6]), the “mIDO LD50” value was “D (D>1000 μM)”.

In the case of `NOCc1ccc(I)cc1` [compound 1818, O-(4-iodobenzyl)hydroxylamine], in the data set on IDO-293-T-Rex cells, the “hIDO LD50” value was “D (key: A: <10 μM; B: 10-100 μM; C: 100-1000 μM; D>1000 μM)”. In addition, the pEC50 on human IDO (Table 16, read-out: hIDO EC50) was > 5.00; at murine IDO (Table 16, read-out: mIDO EC50) it was 4.00 to 5.00. Also, the pIC50 in data set [1] (hIDO IC50, Table 16) is > 5.00. For the same compound, the “mIDO LD50” value in data set [2] is reported as “D (key: A: <10 μM; B: 10-100 μM; C: 100-1000 μM; D>1000 μM)”.

Take `NOCc1cccnc1` [compound 1738, O-(pyridin-3-ylmethyl)hydroxylamine]: the “hIDO LD50” value with IDO-293-T-Rex cells (setting [5]) was “D (D>1000 μM)”. The pEC50 at human IDO (Table 15, read-out: hIDO EC50) was > 5.00; at murine IDO (Table 15, read-out: mIDO EC50), 4.00 to 5.00. Further, the pIC50 in data set [1] (hIDO IC50, Table 15) is 4.00 to 5.00. The “mIDO LD50” value in data set [2] (setting [6]) is “D (D>1000 μM)”.
